Measurements from patent US11918582B2 (RAPT Therapeutics, Inc., priority 2021, dated 2024).
Counter-ions that a name gives are not always drawn.

Biological target: T1, human HPK1 (MAP4K1) (Homo sapiens, UniProt Q92918)
T1 construct: Recombinant human HPK1 kinase domain was obtained from ThermoFisher (Cat. #PV6357) and SignalChem (Cat. #M23-11G); purchased ThermoFisher; SignalChem PV6357; M23-11G
T1 sequence (Q92918 17-274 limits assumed): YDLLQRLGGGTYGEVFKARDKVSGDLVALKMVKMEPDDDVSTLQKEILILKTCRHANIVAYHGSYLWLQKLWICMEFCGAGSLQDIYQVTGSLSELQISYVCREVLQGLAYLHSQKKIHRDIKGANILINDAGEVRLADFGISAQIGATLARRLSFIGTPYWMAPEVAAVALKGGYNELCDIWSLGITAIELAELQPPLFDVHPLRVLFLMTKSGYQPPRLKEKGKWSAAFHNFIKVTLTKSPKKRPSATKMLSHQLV
Experiment: Biochemical assay for activity against HPK1 (ADP-Glo, MBP substrate)
Conditions: recombinant human HPK1 kinase domain, 1 nM enzyme, ADP-Glo luminescence
How it was run: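 Recombinant human HPK1 kinase domain (1 nM solution) preincubated 15 min at room temperature with compounds in pH 7.5 HEPES buffer with NaCl, TCEP, MgCl2, Tween-20, BSA. MBP substrate with ATP added, reaction run 2 h at room temperature. ADP formation read by ADP-Glo luminescence to give IC50.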

Row | Structure (SMILES) | IC50 [nM]
1 | COc1cc2c(cc1Nc1ncc3cnn(C[C@@H]4CCCN4C(C)=O)c3n1)CN(C)CC2 [Example 110, (S)-1-(2-((6-((6-methoxy-2-methyl-1,2,3,4-tetrahydroisoquinolin-7-yl)amino)-1H-pyrazolo[3,4-d]pyrimidin-1-yl)methyl)pyrrolidin-1-yl)ethan-1-one] | < 100
2 | CN1CCc2ccc(Nc3ncc4cnn([C@H]5CCCNC5)c4n3)cc2C1 [Example 17, (S)-2-methyl-N-(1-(piperidin-3-yl)-1H-pyrazolo[3,4-d]pyrimidin-6-yl)-1,2,3,4-tetrahydroisoquinolin-7-amine hydrochloride] | < 100
3 | COc1cc2c(cc1Nc1ncc3cnn([C@H](C)CCO)c3n1)CN(C)CC2 [Example 99, (3R)-3-[6-[(6-methoxy-2-methyl-3,4-dihydro-1H-isoquinolin-7-yl)amino]pyrazolo[3,4-d]pyrimidin-1-yl]butan-1-ol] | < 100
4 | COc1cc2c(cc1Nc1ncc3c(C)nn([C@H]4C[C@H](CNS(C)(=O)=O)C4)c3n1)CN(C)CC2 [Example 132, N-(((1r,3r)-3-(6-((6-methoxy-2-methyl-1,2,3,4-tetrahydroisoquinolin-7-yl)amino)-3-methyl-1H-pyrazolo[3,4-d]pyrimidin-1-yl)cyclobutyl)methyl)methanesulfonamide] | < 100
5 | COc1cc2c(cc1Nc1ncc3cnn(C4CC(CO)(CO)C4)c3n1)CN(C)CC2 [Example 77, [1-(hydroxymethyl)-3-[6-[(6-methoxy-2-methyl-3,4-dihydro-1H-isoquinolin-7-yl)amino]pyrazolo[3,4-d]pyrimidin-1-yl]cyclobutyl]dimethanol] | < 100
6 | CN1CCc2ccc(Nc3ncc4cnn(C)c4n3)cc2C1 [Example 5, 2-methyl-N-(1-methylpyrazolo[3,4-d]pyrimidin-6-yl)-3,4-dihydro-1H-isoquinolin-7-amine] | < 100
7 | COc1cc2c(cc1Nc1ncc3cnn(C4CC5(CCN(S(C)(=O)=O)CC5)C4)c3n1)CN(C)CC2 [Example 82, 6-methoxy-2-methyl-N-[1-(7-methylsulfonyl-7-azaspiro[3.5]nonan-2-yl)pyrazolo[3,4-d]pyrimidin-6-yl]-3,4-dihydro-1H-isoquinolin-7-amine] | < 100
8 | COc1cc2c(cc1Nc1ncc3cnn(C[C@@H]4[C@@H]5C[C@@H]5CN4C(C)=O)c3n1)CN(C)CC2 [Example 137, 1-((1R,2S,5S)-2-((6-((6-methoxy-2-methyl-1,2,3,4-tetrahydroisoquinolin-7-yl)amino)-1H-pyrazolo[3,4-d]pyrimidin-1-yl)methyl)-3-azabicyclo[3.1.0]hexan-3-yl)ethan-1-one] | < 100
9 | COc1cc2c(cc1Nc1ncc3c(C)nn(C[C@@H]4CCCN4C(C)=O)c3n1)CN(C)CC2 [Example 115, (S)-1-(2-((6-((6-methoxy-2-methyl-1,2,3,4-tetrahydroisoquinolin-7-yl)amino)-3-methyl-1H-pyrazolo[3,4-d]pyrimidin-1-yl)methyl)231yrrolidine-1-yl)ethan-1-one] | 100 to 250
10 | COc1cc2c(cc1Nc1ncc3cnn(CCNC(C)=O)c3n1)CN(C)CC2 [Example 87, N-[2-[6-[(6-methoxy-2-methyl-3,4-dihydro-1H-isoquinolin-7-yl)amino]pyrazolo[3,4-d]pyrimidin-1-yl]ethyl]acetamide] | < 100
11 | COc1cc2c(cc1Nc1ncc3c(C)nn([C@@H]4CCC[C@@H](C(N)=O)C4)c3n1)CN(C)CC2 [Example 56, (1R,3R)-3-(6-((6-methoxy-2-methyl-1,2,3,4-tetrahydroisoquinolin-7-yl)amino)-3-methyl-1H-pyrazolo[3,4-d]pyrimidin-1-yl)cyclohexane-1-carboxamide] | < 100
12 | COc1cc2c(cc1Nc1ncc3cnn(C[C@@H]4C[C@@H](C)CN4C(C)=O)c3n1)CN(C)CC2 [Example 138, 1-((2S,4R)-2-((6-((6-methoxy-2-methyl-1,2,3,4-tetrahydroisoquinolin-7-yl)amino)-1H-pyrazolo[3,4-d]pyrimidin-1-yl)methyl)-4-methylpyrrolidin-1-yl)ethan-1-one] | < 100
13 | COc1cc2c(cc1Nc1ncc3cnn(C4C=CCCC4)c3n1)CN(C)CC2 (stereo not shown) [Example 34, N-(1-(cyclohex-2-en-1-yl)-1H-pyrazolo[3,4-d]pyrimidin-6-yl)-6-methoxy-2-methyl-1,2,3,4-tetrahydroisoquinolin-7-amine] | < 100
14 | COc1cc2c(cc1Nc1ncc3c(C(F)(F)F)nn(C(C)C)c3n1)CN(C)CC2 [Example 7, N-(1-isopropyl-3-(trifluoromethyl)-1H-pyrazolo[3,4-d]pyrimidin-6-yl)-6-methoxy-2-methyl-1,2,3,4-tetrahydroisoquinolin-7-amine] | < 100
15 | COc1cc2c(cc1Nc1ncc3cnn([C@H]4CCCC[C@@H]4C)c3n1)CN(C)CC2 (racemic) [Example 30, rac-6-methoxy-2-methyl-N-(1-((1S,2S)-2-methylcyclohexyl)-1H-pyrazolo[3,4-d]pyrimidin-6-yl)-1,2,3,4-tetrahydroisoquinolin-7-amine] | 100 to 250
16 | COc1cc2c(cc1Nc1ncc3cnn(C4CCCCC4)c3n1)CN(C)CC2 [Example 33, N-(1-cyclohexyl-1H-pyrazolo[3,4-d]pyrimidin-6-yl)-6-methoxy-2-methyl-1,2,3,4-tetrahydroisoquinolin-7-amine] | < 100
17 | COc1cc2c(cc1Nc1ncc3cnn(C4CCCN(S(C)(=O)=O)C4)c3n1)CN(C)CC2 (stereo not shown) [Example 108, 6-methoxy-2-methyl-N-(1-(1-(methylsulfonyl)piperidin-3-yl)-1H-pyrazolo[3,4-d]pyrimidin-6-yl)-1,2,3,4-tetrahydroisoquinolin-7-amine] | < 100
18 | COc1cc2c(cc1Nc1ncc3cnn(C4CCC(CO)CC4)c3n1)CN(C)CC2 (stereo in doubt) [Example 64, cis-[4-[6-[(6-methoxy-2-methyl-3,4-dihydro-1H-isoquinolin-7-yl)amino]pyrazolo[3,4-d]pyrimidin-1-yl]cyclohexyl]methanol] | < 100

Other lines, results leading:

Row | IC50 [nM] | Structure (SMILES)
19 | < 100 | COc1cc2c(cc1Nc1ncc3cnn(CC4CCCOC4)c3n1)CN(C)CC2 (racemic) [Example 200, (S)-6-methoxy-2-methyl-N-(1-((tetrahydro-2H-pyran-3-yl)methyl)-1H-pyrazolo[3,4-d]pyrimidin-6-yl)-1,2,3,4-tetrahydroisoquinolin-7-amine and (R)-6-methoxy-2-methyl-N-(1-((tetrahydro-2H-pyran-3-yl)methyl)-1H-pyrazolo[3,4-d]pyrimidin-6-yl)-1,2,3,4-tetrahydroisoquinolin-7-amine racemic mixture]
20 | < 100 | CN1CCc2c(cc(Nc3ncc4cnn([C@H]5CC[C@@H](O)CC5)c4n3)cc2C(F)(F)F)C1 [Example 179, (1s,4s)-4-(6-((2-methyl-5-(trifluoromethyl)-1,2,3,4-tetrahydroisoquinolin-7-yl)amino)-1H-pyrazolo[3,4-d]pyrimidin-1-yl)cyclohexan-1-ol]
21 | < 100 | COc1cc2c(cc1Nc1ncc3cnn(C[C@H]4CCCN(S(C)(=O)=O)C4)c3n1)CN(C)CC2 [Example 143, 6-methoxy-2-methyl-N-[1-[[(3R)-1-methylsulfonyl-3-piperidyl]methyl]pyrazolo[3,4-d]pyrimidin-6-yl]-3,4-dihydro-1H-isoquinolin-7-amine]
22 | < 100 | CC(=O)N1CCC[C@H]1Cn1ncc2cnc(Nc3ccc4c(c3)CN(C)CC4)nc21 [Example 139, (S)-1-(2-((6-((2-methyl-1,2,3,4-tetrahydroisoquinolin-7-yl)amino)-1H-pyrazolo[3,4-d]pyrimidin-1-yl)methyl)pyrrolidin-1-yl)ethan-1-one]
23 | < 100 | CCN1CCc2cc(OC)c(Nc3ncc4cnn([C@H]5CC[C@H](CO)CC5)c4n3)cc2C1 [Example 168, [4-[6-[(2-ethyl-6-methoxy-3,4-dihydro-1H-isoquinolin-7-yl)amino]pyrazolo[3,4-d]pyrimidin-1-yl]cyclohexyl]methanol]
24 | < 100 | COc1cc2c(cc1Nc1ncc3cnn(C[C@@H]4[C@@H](C)CCN4C(C)=O)c3n1)CN(C)CC2 (racemic) [Example 214, 1-[2-[[6-[(6-methoxy-2-methyl-3,4-dihydro-1H-isoquinolin-7-yl)amino]pyrazolo[3,4-d]pyrimidin-1-yl]methyl]-3-methyl-pyrrolidin-1-yl]ethenone]
25 | < 100 | COc1cc2c(cc1Nc1ncc3cnn(C[C@@H]4CC[C@@H](C)N4C(C)=O)c3n1)CN(C)CC2 [Example 174]
26 | < 100 | COc1nc2c(cc1Nc1ncc3cnn([C@H]4CC[C@H](O)CC4)c3n1)CN(C)CC2 [Example 187, (1r,4r)-4-(6-((2-methoxy-6-methyl-5,6,7,8-tetrahydro-1,6-naphthyridin-3-yl)amino)-1H-pyrazolo[3,4-d]pyrimidin-1-yl)cyclohexan-1-ol]
27 | < 100 | COc1cc2c(cc1Nc1ncc3cnn(C[C@@H]4CCCN4C(C)=O)c3n1)CN(CCO)CC2 [Example 194, (S)-1-(2-((6-((2-(2-hydroxyethyl)-6-methoxy-1,2,3,4-tetrahydroisoquinolin-7-yl)amino)-1H-pyrazolo[3,4-d]pyrimidin-1-yl)methyl)pyrrolidin-1-yl)ethan-1-one]
28 | < 100 | COc1cc2c(cc1Nc1ncc3cnn(C[C@@H]4CCCN(C(C)=O)C4)c3n1)CN(C)CC2 [Example 140, 1-[(3R)-3-[[6-[(6-methoxy-2-methyl-3,4-dihydro-1H-isoquinolin-7-yl)amino]pyrazolo[3,4-d]pyrimidin-1-yl]methyl]-1-piperidyl]ethan-1-one]
